Assay results published in the NIST ThermoML archive (doi:10.1016/j.jct.2015.11.023).
Numbers after ± are expanded uncertainties.

Tests used:
[1] = wn = mass fraction of the nth substance listed; conditions: for surface tension liquid-gas: Maximal bubble pressure; for mass density: 100 kPa, Liquid, Vibrating tube method
[2] = refractive index (Na D-line) (dimensionless); wn = mass fraction of the nth substance listed; conditions: 100 kPa, Liquid, Standard Abbe refractometry

SMILES: CCCC[n+]1ccccc1.N#C[N-]C#N [1-butylpyridinium dicyanamide] + O
- surface tension liquid-gas ([1]; 303.15 K, w2 = 0.00176): 55.8 ± 0.5 mN/m
- surface tension liquid-gas ([1]; 303.15 K, w2 = 0.0033): 56.2 ± 0.5 mN/m
- surface tension liquid-gas ([1]; 303.15 K, w2 = 0.00478): 56.5 ± 0.5 mN/m
- surface tension liquid-gas ([1]; 303.15 K, w2 = 0.00628): 56.8 ± 0.5 mN/m
- surface tension liquid-gas ([1]; 303.15 K, w2 = 0.0078): 57.1 ± 0.5 mN/m
- mass density ([1]; 303.15 K, w2 = 0.00123): 1065.65 ± 2 kg/m3
- mass density ([1]; 303.15 K, w2 = 0.00269): 1065.52 ± 2 kg/m3
- mass density ([1]; 303.15 K, w2 = 0.00417): 1065.37 ± 2 kg/m3
- mass density ([1]; 303.15 K, w2 = 0.00567): 1065.24 ± 2 kg/m3
- mass density ([1]; 303.15 K, w2 = 0.00714): 1065.12 ± 2 kg/m3
- surface tension liquid-gas ([1]; 308.15 K, w2 = 0.00176): 55.5 ± 0.5 mN/m
- surface tension liquid-gas ([1]; 308.15 K, w2 = 0.0033): 55.9 ± 0.5 mN/m
- surface tension liquid-gas ([1]; 308.15 K, w2 = 0.00478): 56.2 ± 0.5 mN/m
- surface tension liquid-gas ([1]; 308.15 K, w2 = 0.00628): 56.5 ± 0.5 mN/m
- surface tension liquid-gas ([1]; 308.15 K, w2 = 0.0078): 56.8 ± 0.5 mN/m
- mass density ([1]; 308.15 K, w2 = 0.00123): 1062.58 ± 2 kg/m3
- mass density ([1]; 308.15 K, w2 = 0.00269): 1062.45 ± 2 kg/m3
- mass density ([1]; 308.15 K, w2 = 0.00417): 1062.32 ± 2 kg/m3
- mass density ([1]; 308.15 K, w2 = 0.00567): 1062.16 ± 2 kg/m3
- mass density ([1]; 308.15 K, w2 = 0.00714): 1062.04 ± 2 kg/m3
- surface tension liquid-gas ([1]; 313.15 K, w2 = 0.00176): 55.2 ± 0.5 mN/m
- surface tension liquid-gas ([1]; 313.15 K, w2 = 0.0033): 55.6 ± 0.5 mN/m
- surface tension liquid-gas ([1]; 313.15 K, w2 = 0.00478): 55.9 ± 0.5 mN/m
- surface tension liquid-gas ([1]; 313.15 K, w2 = 0.00628): 56.2 ± 0.5 mN/m
- surface tension liquid-gas ([1]; 313.15 K, w2 = 0.0078): 56.5 ± 0.5 mN/m
- mass density ([1]; 313.15 K, w2 = 0.00123): 1059.54 ± 2 kg/m3
- mass density ([1]; 313.15 K, w2 = 0.00269): 1059.41 ± 2 kg/m3
- mass density ([1]; 313.15 K, w2 = 0.00417): 1059.23 ± 2 kg/m3
- mass density ([1]; 313.15 K, w2 = 0.00567): 1059.11 ± 2 kg/m3
- mass density ([1]; 313.15 K, w2 = 0.00714): 1058.97 ± 2 kg/m3
- surface tension liquid-gas ([1]; 318.15 K, w2 = 0.00176): 54.9 ± 0.5 mN/m
- surface tension liquid-gas ([1]; 318.15 K, w2 = 0.0033): 55.2 ± 0.5 mN/m
- surface tension liquid-gas ([1]; 318.15 K, w2 = 0.00478): 55.5 ± 0.5 mN/m
- surface tension liquid-gas ([1]; 318.15 K, w2 = 0.00628): 55.8 ± 0.5 mN/m
- surface tension liquid-gas ([1]; 318.15 K, w2 = 0.0078): 56.2 ± 0.5 mN/m
- mass density ([1]; 318.15 K, w2 = 0.00123): 1056.51 ± 2 kg/m3
- mass density ([1]; 318.15 K, w2 = 0.00269): 1056.38 ± 2 kg/m3
- mass density ([1]; 318.15 K, w2 = 0.00417): 1056.24 ± 2 kg/m3
- mass density ([1]; 318.15 K, w2 = 0.00567): 1056.07 ± 2 kg/m3
- mass density ([1]; 318.15 K, w2 = 0.00714): 1055.94 ± 2 kg/m3
- surface tension liquid-gas ([1]; 323.15 K, w2 = 0.00176): 54.6 ± 0.5 mN/m
- surface tension liquid-gas ([1]; 323.15 K, w2 = 0.0033): 54.9 ± 0.5 mN/m
- surface tension liquid-gas ([1]; 323.15 K, w2 = 0.00478): 55.2 ± 0.5 mN/m
- surface tension liquid-gas ([1]; 323.15 K, w2 = 0.00628): 55.5 ± 0.5 mN/m
- surface tension liquid-gas ([1]; 323.15 K, w2 = 0.0078): 55.8 ± 0.5 mN/m
- mass density ([1]; 323.15 K, w2 = 0.00123): 1053.5 ± 2 kg/m3
- mass density ([1]; 323.15 K, w2 = 0.00269): 1053.36 ± 2 kg/m3
- mass density ([1]; 323.15 K, w2 = 0.00417): 1053.23 ± 2 kg/m3
- mass density ([1]; 323.15 K, w2 = 0.00567): 1053.04 ± 2 kg/m3
- mass density ([1]; 323.15 K, w2 = 0.00714): 1052.91 ± 2 kg/m3
- surface tension liquid-gas ([1]; 328.15 K, w2 = 0.00176): 54.3 ± 0.5 mN/m
- surface tension liquid-gas ([1]; 328.15 K, w2 = 0.0033): 54.6 ± 0.5 mN/m
- surface tension liquid-gas ([1]; 328.15 K, w2 = 0.00478): 54.9 ± 0.5 mN/m
- surface tension liquid-gas ([1]; 328.15 K, w2 = 0.00628): 55.2 ± 0.5 mN/m
- surface tension liquid-gas ([1]; 328.15 K, w2 = 0.0078): 55.5 ± 0.5 mN/m
- mass density ([1]; 328.15 K, w2 = 0.00123): 1050.5 ± 2 kg/m3
- mass density ([1]; 328.15 K, w2 = 0.00269): 1050.36 ± 2 kg/m3
- mass density ([1]; 328.15 K, w2 = 0.00417): 1050.22 ± 2 kg/m3
- mass density ([1]; 328.15 K, w2 = 0.00567): 1050.05 ± 2 kg/m3
- mass density ([1]; 328.15 K, w2 = 0.00714): 1049.92 ± 2 kg/m3
- surface tension liquid-gas ([1]; 333.15 K, w2 = 0.00176): 54 ± 0.5 mN/m
- surface tension liquid-gas ([1]; 333.15 K, w2 = 0.0033): 54.3 ± 0.5 mN/m
- surface tension liquid-gas ([1]; 333.15 K, w2 = 0.00478): 54.6 ± 0.5 mN/m
- surface tension liquid-gas ([1]; 333.15 K, w2 = 0.00628): 54.9 ± 0.5 mN/m
- surface tension liquid-gas ([1]; 333.15 K, w2 = 0.0078): 55.2 ± 0.5 mN/m
- mass density ([1]; 333.15 K, w2 = 0.00123): 1047.53 ± 2 kg/m3
- mass density ([1]; 333.15 K, w2 = 0.00269): 1047.4 ± 2 kg/m3
- mass density ([1]; 333.15 K, w2 = 0.00417): 1047.21 ± 2 kg/m3
- mass density ([1]; 333.15 K, w2 = 0.00567): 1047.07 ± 2 kg/m3
- mass density ([1]; 333.15 K, w2 = 0.00714): 1046.94 ± 2 kg/m3
- surface tension liquid-gas ([1]; 338.15 K, w2 = 0.00176): 53.7 ± 0.5 mN/m
- surface tension liquid-gas ([1]; 338.15 K, w2 = 0.0033): 54 ± 0.5 mN/m
- surface tension liquid-gas ([1]; 338.15 K, w2 = 0.00478): 54.3 ± 0.5 mN/m
- surface tension liquid-gas ([1]; 338.15 K, w2 = 0.00628): 54.5 ± 0.5 mN/m
- surface tension liquid-gas ([1]; 338.15 K, w2 = 0.0078): 54.8 ± 0.5 mN/m
- mass density ([1]; 338.15 K, w2 = 0.00123): 1044.55 ± 2 kg/m3
- mass density ([1]; 338.15 K, w2 = 0.00269): 1044.42 ± 2 kg/m3
- mass density ([1]; 338.15 K, w2 = 0.00417): 1044.27 ± 2 kg/m3
- mass density ([1]; 338.15 K, w2 = 0.00567): 1044.09 ± 2 kg/m3
- mass density ([1]; 338.15 K, w2 = 0.00714): 1043.94 ± 2 kg/m3
- refractive index ([2]; 303.15 K, w2 = 0.00176): 1.5323 ± 0.003
- refractive index ([2]; 303.15 K, w2 = 0.00319): 1.5321 ± 0.003
- refractive index ([2]; 303.15 K, w2 = 0.00477): 1.5319 ± 0.003
- refractive index ([2]; 303.15 K, w2 = 0.00627): 1.5317 ± 0.003
- refractive index ([2]; 303.15 K, w2 = 0.0078): 1.5315 ± 0.003
- refractive index ([2]; 308.15 K, w2 = 0.00176): 1.5306 ± 0.003
- refractive index ([2]; 308.15 K, w2 = 0.00319): 1.5303 ± 0.003
- refractive index ([2]; 308.15 K, w2 = 0.00477): 1.5301 ± 0.003
- refractive index ([2]; 308.15 K, w2 = 0.00627): 1.5298 ± 0.003
- refractive index ([2]; 308.15 K, w2 = 0.0078): 1.5296 ± 0.003
- refractive index ([2]; 313.15 K, w2 = 0.00176): 1.5283 ± 0.003
- refractive index ([2]; 313.15 K, w2 = 0.00319): 1.5281 ± 0.003
- refractive index ([2]; 313.15 K, w2 = 0.00477): 1.5279 ± 0.003
- refractive index ([2]; 313.15 K, w2 = 0.00627): 1.5277 ± 0.003
- refractive index ([2]; 313.15 K, w2 = 0.0078): 1.5275 ± 0.003
- refractive index ([2]; 318.15 K, w2 = 0.00176): 1.5267 ± 0.003
- refractive index ([2]; 318.15 K, w2 = 0.00319): 1.5265 ± 0.003
- refractive index ([2]; 318.15 K, w2 = 0.00477): 1.5262 ± 0.003
- refractive index ([2]; 318.15 K, w2 = 0.00627): 1.526 ± 0.003
- refractive index ([2]; 318.15 K, w2 = 0.0078): 1.5258 ± 0.003
- refractive index ([2]; 323.15 K, w2 = 0.00176): 1.525 ± 0.003
- refractive index ([2]; 323.15 K, w2 = 0.00319): 1.5248 ± 0.003
- refractive index ([2]; 323.15 K, w2 = 0.00477): 1.5245 ± 0.003
- refractive index ([2]; 323.15 K, w2 = 0.00627): 1.5243 ± 0.003
- refractive index ([2]; 323.15 K, w2 = 0.0078): 1.5241 ± 0.003
- refractive index ([2]; 328.15 K, w2 = 0.00176): 1.5234 ± 0.003
- refractive index ([2]; 328.15 K, w2 = 0.00319): 1.5232 ± 0.003
- refractive index ([2]; 328.15 K, w2 = 0.00477): 1.523 ± 0.003
- refractive index ([2]; 328.15 K, w2 = 0.00627): 1.5227 ± 0.003
- refractive index ([2]; 328.15 K, w2 = 0.0078): 1.5225 ± 0.003
- refractive index ([2]; 333.15 K, w2 = 0.00176): 1.5214 ± 0.003
- refractive index ([2]; 333.15 K, w2 = 0.00319): 1.5212 ± 0.003
- refractive index ([2]; 333.15 K, w2 = 0.00477): 1.5209 ± 0.003
- refractive index ([2]; 333.15 K, w2 = 0.00627): 1.5207 ± 0.003
- refractive index ([2]; 333.15 K, w2 = 0.0078): 1.5204 ± 0.003
- refractive index ([2]; 338.15 K, w2 = 0.00176): 1.5199 ± 0.003
- refractive index ([2]; 338.15 K, w2 = 0.00319): 1.5197 ± 0.003
- refractive index ([2]; 338.15 K, w2 = 0.00477): 1.5194 ± 0.003
- refractive index ([2]; 338.15 K, w2 = 0.00627): 1.5192 ± 0.003
- refractive index ([2]; 338.15 K, w2 = 0.0078): 1.5189 ± 0.003
